Values quoted from earlier work in article PMC8089043 (Journal of controlled release : official journal of the …, 2021).

Legend:
[1] = rats, high doses
[2] = in vivo

Row | SMILES | dose exhibiting hepatic and renal toxicities [1] | safety of diets containing gram quantities [2]
1 | CC(C)=CCC[C@]1(C)C=Cc2c(O)c3c(c(CC=C(C)C)c2O1)O[C@]12C(=C[C@@H]4C[C@H]1C(C)(C)O[C@@]2(C/C=C(/C)C(=O)O)C4=O)C3=O [GA, gambogic acid] | > 120 mg/kg | –
2 | O=c1oc2cc(O)ccc2c2ccc(O)cc12 [UA, urolithin A] | – | safe
